US20090176817A1, “Method of Treatment of Diarrhea-Predominant Irritable Bowel Syndrome in a Subject” (priority 2005, published 2009)
Like-named read-outs stand apart in the source and are kept apart here. Each block holds one compound with its values, some of them ahead of it.

Legend:
[1] = Study S.241.1.104: Ortho Tri-Cyclen pharmacokinetics with cilansetron 2 mg TID; type: in vivo, human; details: for Cmin / Cmax / AUC / half-life: arith. mean; for AUC: read-out: AUC(0-τ); for half-life: read-out: T½ (converted)
From the text: The effects of concomitant administration of cilansetron and a commonly used oral contraceptive, Ortho Tri-Cyclen (ORC), on the pharmacokinetics and pharmacodynamics of ORC and the pharmacokinetics of cilansetron has been evaluated in a randomized, double-blind, placebo-controlled, multiple-dose, 2-period, crossover study in 20 healthy, female subjects, aged 19 to 42 years. Subjects received the following two treatments during each of two 28-day study periods (2 ORC cycles) in a randomized, crossover fashion: Treatment B (reference treatment)−ORC on Days 1-28 (standard ORC cycle)+placebo TID on Days 14-20 and a single dose of placebo on Day 21; Treatment A (test treatment)−ORC on Days 1-28 (standard ORC cycle)+cilansetron 2 mg TID on Days 14-20 and a single dose of cilansetron 2 mg on Day 21. […] For evaluation of the effect of concomitant cilansetron on the pharamacodynamics of ORC, blood samples were collected prior to morning dosing on Days 18, 19, 20, 26, 27, and 28 for measurement of serum progesterone (PG), luteinizing hormone (LH), and follicle stimulating hormone (FSH) concentrations, and untransformed data were compared statistically between treatments.

[2] = tested on: CYP3A4 (cilansetron metabolism); experiment: in vitro; details: human, human hepatic microsomes, probe cilansetron (100 μM), overall metabolism
[3] = tested on: CYP3A4 (formation of 4-hydroxy metabolites of cilansetron); experiment: in vitro; details: human, human hepatic microsomes, probe cilansetron (100 μM), formation of the 4-hydroxy metabolites
[4] = tested on: cilansetron metabolism (ketoconazole 25 μM used as general inhibitor); experiment: in vitro; details: human, human hepatic microsomes, probe cilansetron (100 μM), overall metabolism
[5] = tested on: patients with malignant tumors; experiment: Study S.241.2.101: cisplatin-induced nausea and vomiting; type: in vivo, human; details: IV 8 mg TID
Method: (§1) The effect of cilansetron on nausea and vomiting has been studied in 2 clinical studies in cancer patients. Both studies were randomized, singleblind, positive-controlled, parallel-group, pilot studies in male and female patients with malignant tumors, to investigate the effect of cilansetron on cytostatic-induced nausea and vomiting. In both studies, patients were on their first cycle of chemotherapy and were being treated with cisplatin (275 mg/m2 as a single dose in Study S.24 1.2.10 1 and […] for 5 days in Study K.24 1 S O 17). Patients in Study S.24 1.2.10 1 were aged 40-74 years (ITT population=16) and patients in Study K.24 1 S O 17 were aged 39-74 years (ITT population=19). In both studies, patients were randomized to receive either […] or IV ondansetron 8 mg TID for 1 day (Study S.241.2.101) or 5 days (Study K.2415017), corresponding to the day(s) of their cisplatin administration. If nausea and vomiting were completely controlled on a treatment day, the second and/or third doses of cilansetron or ondansetron could be omitted on that day. The primary efficacy parameter in both studies was the combination of the occurrence of vomiting and the severity of nausea, with a responder being defined as a patient with no vomiting and not more than mild nausea during the treatment day(s). […]

[6] = tested on: patients with malignant tumors; experiment: Study K.241.5017: cisplatin-induced nausea and vomiting; type: in vivo, human; details: IV 8 mg TID
Method: as §1

[7] = female, human, plasma, oral, ORC + Cilansetron 2 mg TID, Day 21
[8] = female, human, plasma, oral, ORC + Placebo, Day 21

- Cmin ([1]; ORC + Cilansetron 2 mg TID, Day 21): 0.022 ng/mL
- Cmin ([1]; ORC + Placebo, Day 21): 0.024 ng/mL
- Cmax [1, 7]: 0.144 ng/mL
- AUC [1, 7]: 1.21 ng·h/mL
- half-life [1, 7]: 20.9 h
- Tmax ([1]; female, human, plasma, oral, ORC + Cilansetron 2 mg TID, Day 21, median): 1.25 h
- Cmax [1, 8]: 0.156 ng/mL
- AUC [1, 8]: 1.32 ng·h/mL
- half-life [1, 8]: 21.2 h
- Mean AUC(0-τ) decrease with concomitant cilansetron ([1]; in vivo): 10%
- Mean Cmax decrease with concomitant cilansetron ([1]; in vivo): 8%
SMILES: C#C[C@]1(O)CC[C@H]2[C@@H]3CCc4cc(O)ccc4[C@H]3CC[C@@]21C [EE, ethinyl estradiol]

- inhibition at 1 μM [2]: ~70%
- inhibition at 1 μM [3]: 47%
- inhibition at 25 μM [4]: 93%
SMILES: CC(=O)N1CCN(c2ccc(OCC3COC(Cn4ccnc4)(c4ccc(Cl)cc4Cl)O3)cc2)CC1 (stereo not shown) [ketoconazole]

SMILES: Cc1nccn1CC1CCc2c(c3ccccc3n2C)C1=O (stereo not shown) [ondansetron, reference compound]
- Response rate [5]: 25.0%
- Response rate [6]: 60.0%
